According to PubChem BioAssay (NCI):
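Grown in 96-well plates, cells were treated for 48 hours with each compound at five concentrations. Insufficient inhibition: endpoint recorded as highest concentration tested. Here, GI50 denotes the concentration required for 50% inhibition of growth. TGI marks complete inhibition of growth.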

How the values were obtained:
Assay in all cases: inhibition of tumour cell growth, NCI panel, 48 h
UACC-257 melanoma = test system: UACC-257 melanoma
HCT-116 colon = test system: HCT-116 colon
CAKI-1 renal = test system: CAKI-1 renal
HT29 colon = test system: HT29 colon
NCI-H460 lung = test system: NCI-H460 lung
SNB-75 CNS = test system: SNB-75 CNS
SK-MEL-2 melanoma = test system: SK-MEL-2 melanoma
SR leukemia = test system: SR leukemia
SF-539 CNS = test system: SF-539 CNS
U251 CNS = test system: U251 CNS
SF-268 CNS = test system: SF-268 CNS
MOLT-4 leukemia = test system: MOLT-4 leukemia
SF-295 CNS = test system: SF-295 CNS
OVCAR-3 ovarian = test system: OVCAR-3 ovarian
EKVX NSCLC = test system: EKVX NSCLC
NCI-H226 lung = test system: NCI-H226 lung
HOP-92 NSCLC = test system: HOP-92 NSCLC
HS 578T breast = test system: HS 578T breast
A549 NSCLC = test system: A549 NSCLC
RXF 393 renal = test system: RXF 393 renal
786-0 renal = test system: 786-0 renal
UO-31 renal = test system: UO-31 renal
HL-60(TB) leukemia = test system: HL-60(TB) leukemia
DU-145 prostate = test system: DU-145 prostate
COLO 205 colon = test system: COLO 205 colon
HCT-15 colon = test system: HCT-15 colon
PC-3 prostate = test system: PC-3 prostate
MCF7 breast = test system: MCF7 breast
T-47D breast = test system: T-47D breast
MALME-3M melanoma = test system: MALME-3M melanoma
UACC-62 melanoma = test system: UACC-62 melanoma
IGROV1 ovarian = test system: IGROV1 ovarian
HCC-2998 colon = test system: HCC-2998 colon
CCRF-CEM leukemia = test system: CCRF-CEM leukemia
MDA-MB-231 breast = test system: MDA-MB-231 breast
BT-549 breast = test system: BT-549 breast
TK-10 renal = test system: TK-10 renal
OVCAR-5 ovarian = test system: OVCAR-5 ovarian
KM12 colon = test system: KM12 colon
NCI-H23 lung = test system: NCI-H23 lung
OVCAR-4 ovarian = test system: OVCAR-4 ovarian
RPMI-8226 leukemia = test system: RPMI-8226 leukemia
SN12C renal = test system: SN12C renal
OVCAR-8 ovarian = test system: OVCAR-8 ovarian
SW-620 colon = test system: SW-620 colon
ACHN renal = test system: ACHN renal
SK-MEL-5 melanoma = test system: SK-MEL-5 melanoma
A498 renal = test system: A498 renal
NCI-H522 lung = test system: NCI-H522 lung
LOX IMVI melanoma = test system: LOX IMVI melanoma
K-562 leukemia = test system: K-562 leukemia
SNB-19 CNS = test system: SNB-19 CNS
SK-OV-3 ovarian = test system: SK-OV-3 ovarian
SK-MEL-28 melanoma = test system: SK-MEL-28 melanoma
M14 melanoma = test system: M14 melanoma
MDA-MB-435 = test system: MDA-MB-435
NCI/ADR-RES ovarian = test system: NCI/ADR-RES ovarian

`COc1cc(C(=O)N2CCN(c3ccccn3)CC2)c(N)cc1OCc1ccccc1` was tested, and the GI50 (UACC-257 melanoma) was > 100 µM, the TGI (UACC-257 melanoma) was > 100 µM and the GI50 (HCT-116 colon) was > 100 µM. For the same compound, the TGI (HCT-116 colon) was > 100 µM, the GI50 (CAKI-1 renal) was > 100 µM and the TGI (CAKI-1 renal) was > 100 µM. For the same compound, the GI50 (HT29 colon) was 78.2 µM, the TGI (HT29 colon) was > 100 µM and the GI50 (NCI-H460 lung) was > 100 µM. For the same compound, the TGI (NCI-H460 lung) was > 100 µM, the GI50 (SNB-75 CNS) was 39.9 µM and the TGI (SNB-75 CNS) was > 100 µM. The GI50 (SK-MEL-2 melanoma) was > 100 µM, the TGI (SK-MEL-2 melanoma) was > 100 µM and the GI50 (SR leukemia) was 77.7 µM. For the same compound, the TGI (SR leukemia) was > 100 µM, the GI50 (SF-539 CNS) was > 100 µM and the TGI (SF-539 CNS) was > 100 µM. For the same compound, the GI50 (U251 CNS) was > 100 µM, the TGI (U251 CNS) was > 100 µM and the GI50 (SF-268 CNS) was > 100 µM. For the same compound, the TGI (SF-268 CNS) was > 100 µM, the GI50 (MOLT-4 leukemia) was 34.1 µM and the TGI (MOLT-4 leukemia) was > 100 µM. The GI50 (SF-295 CNS) was > 100 µM, the TGI (SF-295 CNS) was > 100 µM and the GI50 (OVCAR-3 ovarian) was 55.8 µM. For the same compound, the TGI (OVCAR-3 ovarian) was > 100 µM, the GI50 (EKVX NSCLC) was > 100 µM and the TGI (EKVX NSCLC) was > 100 µM. The GI50 (NCI-H226 lung) was > 100 µM, the TGI (NCI-H226 lung) was > 100 µM and the GI50 (HOP-92 NSCLC) was > 100 µM. The TGI (HOP-92 NSCLC) was > 100 µM, the GI50 (HS 578T breast) was > 100 µM and the TGI (HS 578T breast) was > 100 µM. For the same compound, the GI50 (A549 NSCLC) was > 100 µM, the TGI (A549 NSCLC) was > 100 µM and the GI50 (RXF 393 renal) was > 100 µM. For the same compound, the TGI (RXF 393 renal) was > 100 µM, the GI50 (786-0 renal) was > 100 µM and the TGI (786-0 renal) was > 100 µM. For the same compound, the GI50 (UO-31 renal) was 68.3 µM, the TGI (UO-31 renal) was > 100 µM and the GI50 (HL-60(TB) leukemia) was 82.4 µM. For the same compound, the TGI (HL-60(TB) leukemia) was > 100 µM, the GI50 (DU-145 prostate) was > 100 µM and the TGI (DU-145 prostate) was > 100 µM. The GI50 (COLO 205 colon) was 96.8 µM, the TGI (COLO 205 colon) was > 100 µM and the GI50 (HCT-15 colon) was > 100 µM. For the same compound, the TGI (HCT-15 colon) was > 100 µM, the GI50 (PC-3 prostate) was > 100 µM and the TGI (PC-3 prostate) was > 100 µM. For the same compound, the GI50 (MCF7 breast) was 58.5 µM, the TGI (MCF7 breast) was > 100 µM and the GI50 (T-47D breast) was 45.2 µM. The TGI (T-47D breast) was > 100 µM, the GI50 (MALME-3M melanoma) was > 100 µM and the TGI (MALME-3M melanoma) was > 100 µM. The GI50 (UACC-62 melanoma) was 81 µM, the TGI (UACC-62 melanoma) was > 100 µM and the GI50 (IGROV1 ovarian) was > 100 µM. For the same compound, the TGI (IGROV1 ovarian) was > 100 µM, the GI50 (HCC-2998 colon) was > 100 µM and the TGI (HCC-2998 colon) was > 100 µM. The GI50 (CCRF-CEM leukemia) was 21 µM, the TGI (CCRF-CEM leukemia) was 39.5 µM and the GI50 (MDA-MB-231 breast) was > 100 µM. For the same compound, the TGI (MDA-MB-231 breast) was > 100 µM, the GI50 (BT-549 breast) was 66.4 µM and the TGI (BT-549 breast) was > 100 µM. The GI50 (TK-10 renal) was > 100 µM, the TGI (TK-10 renal) was > 100 µM and the GI50 (OVCAR-5 ovarian) was > 100 µM. The TGI (OVCAR-5 ovarian) was > 100 µM, the GI50 (KM12 colon) was > 100 µM and the TGI (KM12 colon) was > 100 µM. For the same compound, the GI50 (NCI-H23 lung) was > 100 µM, the TGI (NCI-H23 lung) was > 100 µM and the GI50 (OVCAR-4 ovarian) was 69.9 µM. For the same compound, the TGI (OVCAR-4 ovarian) was > 100 µM, the GI50 (RPMI-8226 leukemia) was 56.4 µM and the TGI (RPMI-8226 leukemia) was > 100 µM. The GI50 (SN12C renal) was 46.8 µM, the TGI (SN12C renal) was > 100 µM and the GI50 (OVCAR-8 ovarian) was > 100 µM. For the same compound, the TGI (OVCAR-8 ovarian) was > 100 µM, the GI50 (SW-620 colon) was > 100 µM and the TGI (SW-620 colon) was > 100 µM. The GI50 (ACHN renal) was > 100 µM, the TGI (ACHN renal) was > 100 µM and the GI50 (SK-MEL-5 melanoma) was 30.1 µM. For the same compound, the TGI (SK-MEL-5 melanoma) was > 100 µM, the GI50 (A498 renal) was 91.2 µM and the TGI (A498 renal) was > 100 µM. The GI50 (NCI-H522 lung) was > 100 µM, the TGI (NCI-H522 lung) was > 100 µM and the GI50 (LOX IMVI melanoma) was > 100 µM. The TGI (LOX IMVI melanoma) was > 100 µM, the GI50 (K-562 leukemia) was 20 µM and the TGI (K-562 leukemia) was 74.1 µM. For the same compound, the GI50 (SNB-19 CNS) was > 100 µM, the TGI (SNB-19 CNS) was > 100 µM and the GI50 (SK-OV-3 ovarian) was > 100 µM. For the same compound, the TGI (SK-OV-3 ovarian) was > 100 µM, the GI50 (SK-MEL-28 melanoma) was > 100 µM and the TGI (SK-MEL-28 melanoma) was > 100 µM. The GI50 (M14 melanoma) was > 100 µM, the TGI (M14 melanoma) was > 100 µM and the GI50 (MDA-MB-435) was > 100 µM. For the same compound, the TGI (MDA-MB-435) was > 100 µM, the GI50 (NCI/ADR-RES ovarian) was 74.6 µM and the TGI (NCI/ADR-RES ovarian) was > 100 µM.
